Measured values published in US11866450B2, “Modulators of Cystic Fibrosis Transmembrane Conductance regulator, pharmaceutical compositions, methods of treatment, and process for making the modulators” (priority 2018, dated 2024).
Read-outs that look alike come from different tables or passages of the source.

Experiments:
[1] = biological target: CFTR-mediated chloride transport (Homo sapiens, UniProt P13569); format: cell-based; settings: enteroid cells incubated with test compound 18-24 hours, acute 10 μM forskolin and 300 nM Compound III; for Max. Activity: % of chloride transport with 3 μM Compound A, 3 μM Compound II and 300 nM acute Compound III triple combination control
Chain of CFTR-mediated chloride transport (P13569 whole entry, looked up): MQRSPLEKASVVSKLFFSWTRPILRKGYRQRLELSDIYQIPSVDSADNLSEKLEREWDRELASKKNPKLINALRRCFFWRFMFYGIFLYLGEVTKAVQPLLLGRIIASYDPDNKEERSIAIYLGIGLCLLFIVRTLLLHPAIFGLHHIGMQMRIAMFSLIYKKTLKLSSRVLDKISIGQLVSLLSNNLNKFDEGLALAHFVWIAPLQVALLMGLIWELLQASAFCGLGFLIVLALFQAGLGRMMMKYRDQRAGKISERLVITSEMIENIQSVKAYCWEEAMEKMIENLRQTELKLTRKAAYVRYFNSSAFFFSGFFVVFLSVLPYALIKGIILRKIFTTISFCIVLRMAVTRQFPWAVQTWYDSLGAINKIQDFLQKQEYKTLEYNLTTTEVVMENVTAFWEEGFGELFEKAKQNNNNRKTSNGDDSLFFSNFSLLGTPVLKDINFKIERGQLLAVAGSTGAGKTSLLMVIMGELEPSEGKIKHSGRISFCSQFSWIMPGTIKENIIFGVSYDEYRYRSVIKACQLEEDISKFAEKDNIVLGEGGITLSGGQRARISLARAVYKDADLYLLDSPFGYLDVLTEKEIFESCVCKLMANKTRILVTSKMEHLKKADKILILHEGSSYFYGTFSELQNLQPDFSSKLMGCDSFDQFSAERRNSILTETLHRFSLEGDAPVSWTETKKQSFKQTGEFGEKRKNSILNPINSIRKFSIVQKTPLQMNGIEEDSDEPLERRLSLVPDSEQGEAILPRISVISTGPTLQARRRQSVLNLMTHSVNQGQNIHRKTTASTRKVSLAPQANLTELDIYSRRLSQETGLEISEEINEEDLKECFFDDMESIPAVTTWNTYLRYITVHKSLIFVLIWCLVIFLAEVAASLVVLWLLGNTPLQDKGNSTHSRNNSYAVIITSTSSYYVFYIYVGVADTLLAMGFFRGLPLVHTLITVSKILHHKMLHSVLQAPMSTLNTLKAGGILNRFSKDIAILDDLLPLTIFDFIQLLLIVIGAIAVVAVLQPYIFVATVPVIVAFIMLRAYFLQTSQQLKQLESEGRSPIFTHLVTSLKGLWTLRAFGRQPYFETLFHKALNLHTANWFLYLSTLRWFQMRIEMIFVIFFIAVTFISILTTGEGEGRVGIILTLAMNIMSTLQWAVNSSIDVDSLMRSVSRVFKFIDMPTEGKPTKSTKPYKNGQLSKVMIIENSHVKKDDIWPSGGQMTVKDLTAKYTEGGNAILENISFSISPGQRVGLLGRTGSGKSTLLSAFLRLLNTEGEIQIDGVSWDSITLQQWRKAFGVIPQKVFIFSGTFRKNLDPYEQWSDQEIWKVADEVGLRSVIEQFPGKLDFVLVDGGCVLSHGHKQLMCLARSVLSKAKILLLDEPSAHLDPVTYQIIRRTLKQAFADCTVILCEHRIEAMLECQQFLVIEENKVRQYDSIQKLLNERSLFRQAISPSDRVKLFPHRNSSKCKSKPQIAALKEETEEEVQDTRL
How it was run: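 Membrane-potential fluorescence AUC over 15 min quantified CFTR chloride transport after acute forskolin (10 μM), IBMX (100 μM) and Compound III (300 nM) in chloride-free buffer. Human enteroid cells were pretreated with compound for 18–24 h; % Activity is relative to 3 μM Compound A + 3 μM Compound II + 300 nM Compound III.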

[2] = snar bond

| Compound | EC50 [1] | Max. Activity [1] | further results |
| --- | --- | --- | --- |
| CC1(C)CC2CCCCNc3cccc(n3)S(=O)(=O)NC(=O)c3ccc(-n4ccc(OCCC5(C(F)(F)F)CC5)n4)nc3N1C2 (racemic) [Compound 28, 12,12-dimethyl-8-(3-{2-[1-(trifluoromethyl)cyclopropyl]ethoxy}-1H-pyrazol-1-yl)-2λ^6-thia-3,9,11,19,24-pentaazatetracyclo[18.3.1.111,14.05,10]pentacosa-1(23),5,7,9,20(24),21-hexaene-2,2,4-trione] | < 1000 nM | ++ (++ is 30-60%) | ring closure, isolated yield ([2]; from CC1(C)CC(CCCCNc2cccc(S(=O)(=O)NC(=O)c3ccc(-n4ccc(OCCC5(C(F)(F)F)CC5)n4)nc3Cl)n2)CN1, 16-membered ring, K2CO3/CsF/3A MS, DMSO, 62.4 mM, 150.0 °C, 18.0 h, 2 steps): 60% |
| CC1(C)C[C@@H]2CCCNc3cccc(n3)S(=O)(=O)NC(=O)c3ccc(-n4ccc(OCCC5C6(CC6)C56CC6)n4)nc3N1C2 [Compound 195, (14S)-8-[3-(2-{Dispiro[2.0.2.1]heptan-7-yl}ethoxy)-1H-pyrazol-1-yl]-12,12-dimethyl-2λ^6-thia-3,9,11,18,23-pentaazatetracyclo[17.3.1.111,14.05,10]tetracosa-1(22),5,7,9,19(23),20-hexaene-2,2,4-trione] | < 1000 nM | +++ (+++ is >60%) | ring closure, isolated yield ([2]; from CC1(C)C[C@H](CCCNc2cccc(S(=O)(=O)NC(=O)c3ccc(-n4ccc(OCCC5C6(CC6)C56CC6)n4)nc3Cl)n2)CN1, 15-membered ring, K2CO3, NMP, 55.8 mM, 150.0 °C, 22.0 h): 68% |
| CC1(C)CC2CCCCCc3ccc(cn3)S(=O)(=O)NC(=O)c3ccc(-n4ccc(OCCC5(C(F)(F)F)CC5)n4)nc3N1C2 (stereo not drawn) [Compound 142, 12,12-Dimethyl-8-(3-{2-[1-(trifluoromethyl)cyclopropyl]ethoxy}-1H-pyrazol-1-yl)-2λ^6-thia-3,9,11,21-tetraazatetracyclo[18.2.2.111,14.05,10]pentacosa-1(23),5,7,9,20(24),21-hexaene-2,2,4-trione] | < 1000 nM | + (+ is <30%) | ring closure, isolated yield ([2]; from 2-chloro-N-[[6-[5-(5,5-dimethylpyrrolidin-3-yl)pentyl]-3-pyridyl]sulfonyl]-6-[3-[2-[1-(trifluoromethyl)cyclopropyl]ethoxy]pyrazol-1-yl]pyridine-3-carboxamide (dihydrochloride salt), 17-membered ring, K2CO3/CsF, DMSO, 63.0 mM, 165.0 °C): 36% |
| CC1(C)C[C@@H]2CCCNc3cccc(n3)S(=O)(=O)NC(=O)c3ccc(-n4ccc(OCCCC5(C(F)(F)F)CC5)n4)nc3N1C2 [Compound 161, (14S)-12,12-dimethyl-8-(3-{3-[1-(trifluoromethyl)cyclopropyl]propoxy}-1H-pyrazol-1-yl)-2λ^6-thia-3,9,11,18,23-pentaazatetracyclo[17.3.1.111,14.05,10]tetracosa-1(22),5,7,9,19(23),20-hexaene-2,2,4-trione] | < 1000 nM | +++ (+++ is >60%) | ring closure, isolated yield ([2]; from 2-chloro-N-[[6-[3-[(3S)-5,5-dimethylpyrrolidin-3-yl]propylamino]-2-pyridyl]sulfonyl]-6-[3-[3-[1-(trifluoromethyl)cyclopropyl]propoxy]pyrazol-1-yl]pyridine-3-carboxamide (dihydrochloride salt), 15-membered ring, K2CO3/CsF, NMP, 83.9 mM, 150.0 °C): 55% |
| [2H]C([2H])([2H])C1(C([2H])([2H])[2H])C[C@@H]2CCCNc3cccc(n3)S(=O)(=O)NC(=O)c3ccc(-n4ccc(OCCC5C6(CC6)C56CC6)n4)nc3N1C2 [Compound 274, (14S)-8-[3-(2-{Dispiro[2.0.2.1]heptan-7-yl}ethoxy)-1H-pyrazol-1-yl]-12,12-di(trideuterio)methyl-2λ^6-thia-3,9,11,18,23-pentaazatetracyclo[17.3.1.111,14.05,10]tetracosa-1(23),5,7,9,19,21-hexaene-2,2,4-trione] | < 1000 nM | +++ (+++ is >60%) | ring closure, isolated yield ([2]; from [2H]C([2H])([2H])C1(C([2H])([2H])[2H])C[C@H](CCCNc2cccc(S(=O)(=O)NC(=O)c3ccc(-n4ccc(OCCC5C6(CC6)C56CC6)n4)nc3Cl)n2)CN1, 15-membered ring, K2CO3, NMP, 53.5 mM, 150.0 °C): 47% |
| [2H]C([2H])([2H])C1(C([2H])([2H])[2H])C[C@@H]2CCCNc3cccc(n3)S(=O)(=O)NC(=O)c3ccc(-n4ccc(OCCCC5(C(F)(F)F)CC5)n4)nc3N1C2 [Compound 292, (14S)-12,12-di(trideuterio)methyl-8-(3-{3-[1-(trifluoromethyl)cyclopropyl]propoxy}-1H-pyrazol-1-yl)-2λ^6-thia-3,9,11,18,23-pentaazatetracyclo[17.3.1.111,14.05,10]tetracosa-1(22),5,7,9,19(23),20-hexaene-2,2,4-trione] | < 1000 nM | +++ (+++ is >60%) | ring closure, isolated yield ([2]; from [2H]C([2H])([2H])C1(C([2H])([2H])[2H])C[C@H](CCCNc2cccc(S(=O)(=O)NC(=O)c3ccc(-n4ccc(OCCCC5(C(F)(F)F)CC5)n4)nc3Cl)n2)CN1, 15-membered ring, K2CO3, NMP, 41.5 mM, 135.0 °C, 22.0 h): 27% |
| CC1(C)CC2CCCOc3cccc(n3)S(=O)(=O)NC(=O)c3ccc(-n4ccc(OCCC5(C(F)(F)F)CC5)n4)nc3N1C2 (racemic) [Compound 40, 12,12-dimethyl-8-(3-{2-[1-(trifluoromethyl)cyclopropyl]ethoxy}-1H-pyrazol-1-yl)-18-oxa-2λ^6-thia-3,9,11,23-tetraazatetracyclo[17.3.1.111,14.05,10]tetracosa-1(22),5,7,9,19(23),20-hexaene-2,2,4-trione] | < 1000 nM | ++ (++ is 30-60%) | ring closure, isolated yield ([2]; from CC1(C)CC(CCCOc2cccc(S(=O)(=O)NC(=O)c3ccc(-n4ccc(OCCC5(C(F)(F)F)CC5)n4)nc3Cl)n2)CN1, 15-membered ring, K2CO3/CsF/3A MS, DMSO, 37.3 mM, 150.0 °C, 8.0 h): 48% |
| CC1(C)C[C@@H]2CCCNc3cccc(n3)S(=O)(=O)NC(=O)c3ccc(-n4ccc(OCCC5C(C)(C)C5(C)C)n4)nc3N1C2 [Compound 185, (14S)-12,12-Dimethyl-8-{3-[2-(2,2,3,3-tetramethylcyclopropyl)ethoxy]-1H-pyrazol-1-yl}-2λ^6-thia-3,9,11,18,23-pentaazatetracyclo[17.3.1.111,14.05,10]tetracosa-1(23),5(10),6,8,19,21-hexaene-2,2,4-trione] | < 1000 nM | +++ (+++ is >60%) | ring closure, isolated yield ([2]; from CC(C)(C)OC(=O)N1C[C@@H](CCCNc2cccc(S(=O)(=O)NC(=O)c3ccc(-n4ccc(OCCC5C(C)(C)C5(C)C)n4)nc3Cl)n2)CC1(C)C, 15-membered ring, K2CO3/3A MS, DMSO, 37.9 mM, 160.0 °C, 2 steps): 19% |
